Measurements reported in publication PMC3914206.

Legend:
Assay type in all cases: binding
Parameters in all cases: KINOMEscan: ABL1(F317L)-phosphorylated / KINOMEscan: ABL1(H396P)-nonphosphorylated / KINOMEscan: ABL1(H396P)-phosphorylated / KINOMEscan: ABL1(M351T)-phosphorylated / KINOMEscan: ABL1(T315I)-phosphorylated / KINOMEscan: ABL1-nonphosphorylated / KINOMEscan: ABL1-phosphorylated / KINOMEscan: ACVR2A / KINOMEscan: ACVR2B / KINOMEscan: ADCK3 / KINOMEscan: ADCK4 / KINOMEscan: AKT1 / KINOMEscan: AKT3 / KINOMEscan: ALK / KINOMEscan: ARK5 / KINOMEscan: AURKA / KINOMEscan: AURKC / KINOMEscan: BIKE / KINOMEscan: BMPR1A / KINOMEscan: BMPR1B / KINOMEscan: BMX / KINOMEscan: BRK / KINOMEscan: BRSK1 / KINOMEscan: BRSK2 / KINOMEscan: CAMK1 / KINOMEscan: CAMK1D / KINOMEscan: CAMK1G / KINOMEscan: CAMK2A / KINOMEscan: CAMK2B / KINOMEscan: AAK1 / KINOMEscan: CAMK2D / KINOMEscan: CAMK2G / KINOMEscan: ABL1(F317I)-nonphosphorylated / KINOMEscan: ABL1(F317I)-phosphorylated / KINOMEscan: ABL1(F317L)-nonphosphorylated: unit: % Ctrl
Conditions in all cases: Compound Concentration 10 µM
panel of 442 kinases [1] = molecular target: T1, panel of 442 kinases (Homo sapiens, UniProt P51955)
T1 construct: purchased KINOMEscan
T1 sequence (P51955 1-445): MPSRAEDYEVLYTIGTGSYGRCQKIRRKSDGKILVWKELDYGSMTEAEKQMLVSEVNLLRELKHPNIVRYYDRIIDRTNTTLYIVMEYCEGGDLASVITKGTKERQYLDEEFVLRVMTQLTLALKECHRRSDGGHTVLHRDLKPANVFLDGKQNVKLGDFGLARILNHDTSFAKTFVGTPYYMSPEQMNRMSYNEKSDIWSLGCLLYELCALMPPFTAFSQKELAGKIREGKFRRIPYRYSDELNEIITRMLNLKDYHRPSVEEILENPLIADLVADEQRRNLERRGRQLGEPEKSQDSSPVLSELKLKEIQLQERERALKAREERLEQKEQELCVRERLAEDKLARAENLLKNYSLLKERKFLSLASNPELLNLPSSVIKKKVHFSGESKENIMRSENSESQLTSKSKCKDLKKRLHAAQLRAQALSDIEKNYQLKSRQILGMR
From the text: (§1) We assessed the selectivity of members of this scaffold using the KINOMEscan methodology across a near comprehensive panel of 442 kinases [[18,27]].

panel of 442 kinases [2] = molecular target: T2, panel of 442 kinases (Homo sapiens, UniProt Q2M2I8)
T2 construct: purchased KINOMEscan
T2 sequence (Q2M2I8 whole entry): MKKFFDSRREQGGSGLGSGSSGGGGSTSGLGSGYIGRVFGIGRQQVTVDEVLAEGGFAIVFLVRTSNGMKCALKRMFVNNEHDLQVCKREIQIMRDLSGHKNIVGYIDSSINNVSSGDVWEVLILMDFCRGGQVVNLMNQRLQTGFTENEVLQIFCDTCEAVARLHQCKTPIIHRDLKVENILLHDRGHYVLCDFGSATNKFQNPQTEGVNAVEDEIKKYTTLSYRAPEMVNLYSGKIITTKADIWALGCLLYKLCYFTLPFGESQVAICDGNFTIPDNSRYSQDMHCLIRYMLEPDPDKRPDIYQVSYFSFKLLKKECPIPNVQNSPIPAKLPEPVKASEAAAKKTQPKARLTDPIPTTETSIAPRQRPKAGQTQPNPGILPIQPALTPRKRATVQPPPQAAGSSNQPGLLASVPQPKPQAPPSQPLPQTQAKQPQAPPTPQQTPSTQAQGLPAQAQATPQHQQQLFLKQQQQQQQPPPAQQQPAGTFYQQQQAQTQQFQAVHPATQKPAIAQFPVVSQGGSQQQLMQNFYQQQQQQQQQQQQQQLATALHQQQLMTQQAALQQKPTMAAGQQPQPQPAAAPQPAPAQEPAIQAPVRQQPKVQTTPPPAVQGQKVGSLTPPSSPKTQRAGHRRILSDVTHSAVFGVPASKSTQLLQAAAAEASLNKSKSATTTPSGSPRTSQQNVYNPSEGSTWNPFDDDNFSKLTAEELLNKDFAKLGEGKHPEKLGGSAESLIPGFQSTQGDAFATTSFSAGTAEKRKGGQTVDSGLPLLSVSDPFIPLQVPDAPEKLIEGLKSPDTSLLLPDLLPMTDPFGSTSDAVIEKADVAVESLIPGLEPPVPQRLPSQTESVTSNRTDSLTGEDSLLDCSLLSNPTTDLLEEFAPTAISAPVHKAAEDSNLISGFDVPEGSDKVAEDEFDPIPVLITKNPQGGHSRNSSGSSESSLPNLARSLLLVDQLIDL
From the text: as §1

panel of 442 kinases [3] = molecular target: T3, panel of 442 kinases (Homo sapiens, UniProt Q00532)
T3 construct: purchased KINOMEscan
T3 sequence (Q00532 whole entry): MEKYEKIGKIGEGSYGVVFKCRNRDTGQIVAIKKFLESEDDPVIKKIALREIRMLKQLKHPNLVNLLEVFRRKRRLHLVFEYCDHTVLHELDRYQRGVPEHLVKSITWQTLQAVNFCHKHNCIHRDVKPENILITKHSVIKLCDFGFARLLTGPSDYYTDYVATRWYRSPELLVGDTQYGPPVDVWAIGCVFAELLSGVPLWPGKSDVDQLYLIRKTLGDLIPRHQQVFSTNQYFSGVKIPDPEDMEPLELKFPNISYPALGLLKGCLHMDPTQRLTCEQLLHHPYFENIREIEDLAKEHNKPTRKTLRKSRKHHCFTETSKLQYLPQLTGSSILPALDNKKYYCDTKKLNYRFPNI
From the text: as §1

COc1cc(C(=O)N2CCC(N3CCN(C)CC3)CC2)ccc1Nc1ncc2c(n1)N(C1CCCC1)c1ccccc1C(=O)N2C [Compound 25, 11-cyclopentyl-2-((2-methoxy-4-(4-(4-methylpiperazin-1-yl)piperidine-1-carbonyl)phenyl)amino)-5-methyl-5H-benzo[e]pyrimido[5,4-b][1,4]diazepin-6(11H)-one]
KINOMEscan: NEK2 (panel of 442 kinases [1]): 88 | KINOMEscan: AAK1 (panel of 442 kinases [2]): 89 | KINOMEscan: CDKL1 (panel of 442 kinases [3]): 100

CCOc1cc(C(=O)N2CCC(N3CCN(C)CC3)CC2)ccc1Nc1ncc2c(n1)N(C1CCCC1)c1ccccc1C(=O)N2C [Compound 26]
KINOMEscan: NEK2 (panel of 442 kinases [1]): 86 | KINOMEscan: AAK1 (panel of 442 kinases [2]): 100 | KINOMEscan: CDKL1 (panel of 442 kinases [3]): 86

COc1cc(C(=O)N2CCC(N3CCN(C)CC3)CC2)ccc1Nc1ncc2c(n1)N1CCc3cccc(c31)C(=O)N2C [Compound 24]
KINOMEscan: NEK2 (panel of 442 kinases [1]): 62

COc1cc(C(=O)N2CCC(N3CCN(C)CC3)CC2)ccc1Nc1ncc2c(n1)N(C)c1ccccc1C(=O)N2C [15 (LRRK2-IN-1)]
KINOMEscan: NEK2 (panel of 442 kinases [1]): 100 | KINOMEscan: AAK1 (panel of 442 kinases [2]): 84 | KINOMEscan: CDKL1 (panel of 442 kinases [3]): 78
